Columns and labels:
[1] = test system: differentiated L6-myotubes; experiment: Glucose uptake screen (Biological example 1 of WO 2019/053427); format: cell-based; details: compound at 10 μM, activity relative to isoproterenol at 10 μM, read-out: Biological example 1 of WO 2019/053427 (GU)
Procedure: (§1) Compounds described in publications referenced and incorporated herein were screened in accordance with the procedures outlined in Biological example 1 and Biological example 2 of WO 2019/053427.
L6-myoblasts were grown in Dulbecco's Modified Eagle's Medium (DMEM) containing 1 g/L glucose supplemented with 10% fetal bovine serum (FBS), 2 mM L-glutamine, 50 U/mL penicillin, […] streptomycin and 10 mM HEPES. Cells were plated at 1x 10^5 cells per mL in 24-well plates. After reaching 90% confluence the cells were grown in medium containing 2% FBS for 7 days where upon cells differentiated into myotubes. The differentiated L6-myotubes were serum-starved overnight in medium containing 0.5% fatty-acid free BSA and stimulated with Compound A at a final concentration of 1×10^−5 M in the presence of the selective β2-adrenergic receptor antagonist ICI-118551. After 1 h 40 min the cells were washed with warm, glucose free medium twice and another portion of agonist was added to the glucose free medium. After another 20 min of incubation the cells were exposed to 50 nM ^3H-2-deoxyglucose for 10 min before washed in ice cold glucose free medium three times and lysed in 400 µl/well 0.2 M NaOH for 1 h at 60° C. The cell lysate was mixed with 4 ml scintillation buffer (Emulsifier Safe, Perkin Elmer) and the radioactivity was detected in a P-counter (Tri-Carb 4810TR, Perkin Elmer).

[2] = test system: differentiated L6-myotubes; experiment: cAMP production relative to isoprenaline (Biological example 2 of WO 2019/053427); format: cell-based; details: 0.25 h, compound at 10 μM, activity relative to isoproterenol at 10 μM
Source text: For example, the level of cAMP production induced by a given compound can be determined by reference to the amount induced by a defined concentration of that compound relative to that induced by the same concentration of a reference compound, such as isoprenaline, using techniques known to those skilled in the art (e.g. following the protocol as described in the biological examples provided in WO 2019/053427, i.e. in cells, such as differentiated L6-myotubes, having been stimulated with isoprenaline or the compound with a final concentration of 1×10^−5 M, for 15 min in stimulation buffer, such as HBSS supplemented with 1% BSA, 5 mM HEPES and 1 mM IBMX, at pH 7.4).
as §1

Structure (SMILES)	Emax at 10 µM [1] [%]	Emax at 10 µM [2] [%]
CC(C)(NC[C@H](O)c1cccc(F)c1)[C@H]1CC[C@@H](C(=O)O)CC1 [Compound 369, (1S,4s)-8-[(R)-2-(m-fluorophenyl)-2-hydroxyethylamino]-7-hydroxy-p-menthan-7-one]	50 to 75	< 25
CC12CC(C1)[C@H]([C@@H](O)c1cccc(Cl)c1)N2 [Compound 208, (S)-{(R)-1-methyl-2-azabicyclo[2.1.1]hex-3-yl}(m-chlorophenyl)methanol]	50 to 75	< 25
COc1ccc(CCC23CCC([C@@H](O)c4cncc(F)c4)(CC2)N3)cc1 [Compound 541, (S)-(5-fluoro-3-pyridyl){4-[2-(p-methoxyphenyl)ethyl]-7-azabicyclo[2.2.1]hept-1-yl}methanol]	< 25	< 25
COc1ccc(C[C@@]2(C)CC[C@H]([C@@H](O)c3cccc(F)c3)N2)cc1 [Compound 365, (S)-{(2R,5R)-5-[(p-methoxyphenyl)methyl]-5-methyl-2-pyrrolidinyl}(m-fluorophenyl)methanol]	> 75	< 25
CCCCNC[C@H](O)c1csc(C(F)(F)F)n1 [Compound 72, (S)-2-(butylamino)-1-[2-(trifluoromethyl)-1,3-thiazol-4-yl]-1-ethanol]	25 to 50	< 25
CCCCNCC(O)c1cc(Cl)c(N)c(C(F)(F)F)c1 (stereo not shown) [Compound 32, 1-[4-amino-3-chloro-5-(trifluoromethyl)phenyl]-2-(butylamino)-1-ethanol]	> 75	25 to 50
CC(C)(CC[C@H]1CC[C@@H](O)CC1)NC[C@H](O)c1ccccc1F [Compound 320, (R)-2-{1,1-dimethyl-3-[(1s,4R)-4-hydroxycyclohexyl]propylamino}-1-(o-fluorophenyl)-1-ethanol]	> 75	25 to 50
COc1ccc(C[C@H]2CC[C@H]([C@H](O)c3cncc(F)c3)N2)cc1 [Compound 379, (R)-{(2R,5R)-5-[(p-methoxyphenyl)methyl]-2-pyrrolidinyl}(5-fluoro-3-pyridyl)methanol]	> 75	< 25
COC(=O)[C@H]1CC[C@H](CC(C)(C)NC[C@H](O)c2cccc(F)c2)CC1 [Compound 353, methyl (1R,4r)-4-{2-[(R)-2-(m-fluorophenyl)-2-hydroxyethylamino]-2-methylpropyl}cyclohexanecarboxylate]	> 75	< 25
O=C(N[C@H]1CC[C@@H](CNC[C@H](O)c2cncc(F)c2)CC1)c1ccccc1 [Compound 318, N-[(1S,4s)-4-{[(R)-2-(5-fluoro-3-pyridyl)-2-hydroxyethylamino]methyl}cyclohexyl]benzamide]	50 to 75	< 25
CO[C@H]1CC[C@@H](CNC[C@H](O)c2cccc(F)c2)CC1 [Compound 245, (R)-1-(m-fluorophenyl)-2-({[(1s,4S)-4-methoxycyclohexyl]meth-yl}amino)-1-ethanol]	50 to 75	< 25
CC1(C)CCC[C@H]([C@@H](O)c2cccc(O)c2)N1 [Compound 103, (S)-[(R)-6,6-dimethyl-2-piperidyl](m-hydroxyphenyl)methanol]	25 to 50	< 25
Oc1ccc(C(O)CNCC2CC2)cc1 (stereo not shown) [Compound 3, p-{2-[(cyclopropylmethyl)ami-no]-1-hydroxyethyl}phenol]	50 to 75	< 25
CC(C)(C[C@H]1CC[C@H](S(N)(=O)=O)CC1)NC[C@H](O)c1cncc(F)c1 [Compound 518, (1R,4r)-4-{2-[(R)-2-(5-fluoro-3-pyridyl)-2-hydroxyethylamino]-2-methylpropyl}cyclohexanesulfonamide]	50 to 75	< 25

From US20260256751A1, “COMBINATION OF BETA-2-ADRENERGIC RECEPTOR AGONISTS AND GLP-1 RECEPTOR AGONISTS FOR USE IN TREATING HYPERGLYCAEMIA” (ATROGI AB, priority 2023, published 2026)
